Like-named read-outs stand apart in the source and are kept apart here.

The test system of test [1] is Escherichia coli 413-1, ATCC 25922. As to the kind of experiment: Microtiter plate assay, growth inhibition. Type of test: cell-based. The procedure:
(§1) Stock cultures of Escherichia coli 413-1, ATCC 25922, Salmonella Enteritidis, ATCC 13076, Bacillus subtilis PB6 (Kemin Industries) and Lactobacillus johnsonii D115 (Kemin Industries) were cultured from agar plates held at 4° C. and inoculated into tubes of either Tryptic Soy Broth (TSB) or de Man, Rogosa and Sharpe (MRS) broth. The bacteria were incubated aerobically or anaerobically as appropriate at 37° C. for 20-22 h. All microbial cultures used in this work are strains maintained in an in-house culture collection.
(§2) Stock solutions of 1000 ppm each of carvacrol and thymol standards were prepared in sterile TSB to which 0.1% agar was added for stabilization of the oil:water emulsion (Rasooli et al., 2007; Burt, S. and R. Reinders. 2003. Antibacterial activity of selected plant essential oils against Escherichia coli O157:H7. Letters Appl. Microbiol. 36:162-167). Subsequent dilutions and/or combinations of the standard stock solutions were prepared in TSB to achieve the targeted inclusion level of each molecule.
(§3) Stock solutions of 1000 ppm were made of each of the HC and HT extracted oils in sterile TSB or MRS broth to which 0.1% agar was added. Subsequent dilutions and/or combinations of the extracted oil stock solutions were prepared in TSB or MRS to achieve the targeted inclusion level of each molecule.
(§4) The efficacy of carvacrol and thymol in the inhibition of microbial growth was evaluated in a microtiter plate assay measuring the optical density at 620 nm using an Optimax microtiter plate reader (Molecular Devices, Sunnyvale, Calif.). Plates were read kinetically (aerobic organisms) or endpoint (anaerobic organisms) over 20-24 h while maintaining temperature at 35° C. All results reflect the average optical density measurements of four microtiter wells. A 100 uL aliquot of a test organism (1.0E+06 cfu/mL) in sterile saline and a 100 μL aliquot of experimental treatment were dispensed into individual microtiter plate wells. Treatments prepared in TSB were used for E. coli, S. Enteritidis and PB6 while treatments prepared in MRS broth were used for L. johnsonii D115. Positive controls consisted of 100 μL of test organism in sterile saline and 100 μL of sterile TSB or MRS. Negative controls were made of 100 μL of sterile TSB or MRS and 100 μL of sterile saline (no organisms).
(§5) The inhibitory levels of carvacrol and thymol against selected microorganisms were evaluated through several formulation matrices designed to assess the individual molecules as well as combinations of the molecules. Initially, thirteen formulations were prepared according to the incomplete 4×4 matrix design in Table 1 using 0, 125, 250 and 500 ppm each of carvacrol standard and thymol standard to evaluate the inhibitory activity toward selected microorganisms. […]

The subject of test [2] is Salmonella Enteritidis, ATCC 13076. The test can be described thus: Microtiter plate assay, growth inhibition. Type of test: cell-based. The following applies: Salmonella enterica, read-out: level needed to inhibit the growth (MIC). The procedure: as §1, §2, §3, §4, §5

One may read the MIC as the lowest concentration found to suppress growth. As to `Cc1ccc(C(C)C)cc1O` [carvacrol], the minimal inhibitory concentration (MIC) in test [1] (ATCC25922, read-out: level needed to inhibit the growth (MIC)) lay within 125 to 250 µg/mL; in test [2] it was 125 to 250 µg/mL.
Take `Cc1ccc(C(C)C)c(O)c1` [thymol]: the MIC in test [1] (ATCC25922, microtiter plate, OD 620 nm, 20-24 h, 35° C., read-out: level needed to inhibit the growth (MIC)) fell in the range of 125 to 250 µg/mL; in test [2] (microtiter plate, OD 620 nm, 20-24 h, 35° C.), 125 to 250 µg/mL.

These data come from US20160157482A1, “Antimicrobial Compositions Containing Carvacrol and Thymol” (Kemin Industries, Inc., priority 2013, published 2016).
